Measurements: US20260209297A1, “ANTIMICROBIAL PEPTIDES AND MODIFICATIONS THEREOF” (priority 2022, published 2026)
Converted amounts (≈) assume the structure as drawn. Positions of bridges follow the written chain, without caps; N, C: chain ends. Residues, ends and D or L forms follow the SMILES beside them.

B1: PD91.1.1: SEQ ID NO: 578 with N-terminal alanine; Setaria viridis wild-type defensin, expressed in Pichia pastoris (protein, listed as Setaria viridis)
chain: AYMCTTQNRFFHGRCVNNLNCASSCVHGRLGTGGHCATRKRSAADPGVDIDWVWNRRICVCVFQC
modifications: N-terminal alanine added
notes: Setaria viridis wild-type defensin, expressed in Pichia pastoris
B2: PD97.1.1: SEQ ID NO: 608 with N-terminal alanine; Rubus chingii wild-type defensin, expressed in Pichia pastoris (protein, listed as Rubus chingii)
chain: GACPLVSKRSKTWSGFCGSSNNCNKQCRSWESAQHGACHNTYKTVLGVKVISGRACFCYFCKKHT
modifications: N-terminal alanine added
notes: Rubus chingii wild-type defensin, expressed in Pichia pastoris
B3: PD127.1.1: SEQ ID NO: 732 with N-terminal alanine; wild-type defensin-like protein, expressed in Pichia pastoris (protein, listed as Potentilla micrantha)
chain: GACPLVQKRSKTWSGFCGSSNNCDKQCRTWEKAKHGACHATGDLKGTPRLKLRSCHARRSKDH
modifications: N-terminal alanine added
notes: wild-type defensin-like protein, expressed in Pichia pastoris

Columns and labels:
[1] = tested on: Fusarium graminearum PH-1; assay type: cell-based; details: for F. graminearum PH-1 MIC Day 1: Fusarium graminearum PH-1, 96-well, resazurin viability; for MIC against F. graminearum: F. graminearum PH-1, Example 7
[2] = tested on: Botrytis cinerea T-4; details: Table 18

| Molecule | F. graminearum PH-1 MIC Day 1 [1] | other results |
| --- | --- | --- |
| PD88.1.1: SEQ ID NO: 565 with N-terminal alanine; Fraxinus excelsior wild-type defensin, expressed in Pichia pastoris (KHCAKLSKGWHGFCAPHKCSRYCIHHEGAYDGACLKHHHSKHIGCYCYYRHC; N-terminal alanine added; Fraxinus excelsior) | >12 µM |  |
| PD126.1.1: SEQ ID NO: 730 with N-terminal alanine; wild-type defensin-like protein, expressed in Pichia pastoris (KLCERRSKTWTGWCAKTSHCNKQCKDWERVEHGACHGEFLEKPVSAISNAHCKISF; N-terminal alanine added; listed as Prunus armeniaca) | >12 µM |  |
| PD125.1.1: SEQ ID NO: 728 with N-terminal alanine; wild-type defensin-like protein, expressed in Pichia pastoris (VICPLESKRSKTWSGVCAQSKNCDKQCKTWERAKHGACHATYGKVLGVKACMHAGNK; N-terminal alanine added; listed as Prunus armeniaca) | 8 µM |  |
| PD92.1.1: SEQ ID NO: 583 with N-terminal alanine; Trifolium pratense wild-type defensin, expressed in Pichia pastoris (RKCESKRRWIYGNCLSDEKCASDCLVKGFLFGKCRGYDNRCYCKKPRC; N-terminal alanine added; Trifolium pratense) | 3 µM |  |
| PD95.1.1: SEQ ID NO: 598 with N-terminal alanine; Mimulus guttatus wild-type defensin, expressed in Pichia pastoris (RHCESPSHRFKGICVRKSNCAAICQTEGFSSGKCRGFRSRCVCIKHC; N-terminal alanine added; listed as Mimulus guttatus) | 0.75 µM | MIC against F. graminearum [1]: 0.75 µM |
| PD99.1.1: SEQ ID NO: 616 with N-terminal alanine; Theobroma cacao wild-type defensin, expressed in Pichia pastoris (KLCQKRSKTWTGPCIKTKNCDHQCRKWEKAQHGACHWQWPGFACFCYVNC; N-terminal alanine added; Theobroma cacao) | 0.75 µM | MIC against F. graminearum [1]: 0.75 µM |
| PD84.1.1: SEQ ID NO: 546 with N-terminal alanine; Striga asiatica wild-type defensin, expressed in Pichia pastoris (KICEYKSERFWGVCLSDIKCADVCKDESFESGDCQGLRRRCMCYNHC; N-terminal alanine added; listed as Striga asiatica) | >12 µM |  |
| PD120.1.1: SEQ ID NO: 706 with N-terminal alanine; Setaria italica wild-type defensin, expressed in Pichia pastoris (DRCETHSRTYKGRCNNHNCWSICITEGNTGGFCKGTLLLKCMCTSEC; N-terminal alanine added; listed as Setaria italica) | 12 µM |  |
| PD86.1.1: SEQ ID NO: 555 with N-terminal alanine; Eryanthe guttata wild-type defensin, expressed in Pichia pastoris (SLCETPSRYFNGICFSRRNCGAICEKEGFSSGRCKAFKCVCGKDC; N-terminal alanine added; listed as Eryanthe guttata) | 6 µM |  |
| PD121.1.1: SEQ ID NO: 711 with N-terminal alanine; Setaria italica wild-type defensin, expressed in Pichia pastoris (RHCLSQSHHFKGLCLSSSNCANVCRVERFPDGECQTTAGTRKCFCKRIC; N-terminal alanine added; listed as Setaria italica) | 1.5 µM |  |
| PD124.1.1: SEQ ID NO: 723 with N-terminal alanine; Rubus argutus wild-type defensin, expressed in Pichia pastoris (RICEVPSKTFIGLCFKDTNCIVRCRSEGYGYGKCSHFRRRCRCFKPCP; N-terminal alanine added; listed as Rubus argutus) | 2 µM |  |
| PD128.1.1: SEQ ID NO: 734 with N-terminal alanine; wild-type defensin-like protein, expressed in Pichia pastoris (RVCLRRSKTWTGFCGNTRGFDSQCKRWECALHGACHC; N-terminal alanine added; listed as Lepidium sativum) | >12 µM |  |
| PD123.1.1: SEQ ID NO: 719 with N-terminal alanine; Striga asiatica wild-type defensin, expressed in Pichia pastoris (RKCESKSQQFKGLCFIKANCAAVCRTEGFHSGHCRGFRRRCYCTKHC; N-terminal alanine added; listed as Striga asiatica) | 6 µM |  |
| PD82.1.1: SEQ ID NO: 538 with N-terminal alanine; Pinus sylvestris wild-type defensin, expressed in Pichia pastoris (RTCLSKSHRFHGYCVRSSSCKEICQTERFLSGECRHTHLGNRRCFCEKPC; N-terminal alanine added; listed as Pinus sylvestris) | 1.5 µM |  |
| PD94.1.1: SEQ ID NO: 593 with N-terminal alanine; Solanum lycopersicum wild-type defensin, expressed in Pichia pastoris (KLCQYHSETFHGVCVTGNNCNRHCQRENFEGGRCHGIRHYRCVCYRTC; N-terminal alanine added; listed as Solanum lycopersicum) | >12 µM |  |
| CC(C)C[C@@H]1NC(=O)[C@@H](NC(=O)[C@H](C)NC(=O)CN)CSSC[C@@H](C(=O)N[C@@H](Cc2ccc(O)cc2)C(N)=O)NC(=O)[C@H](Cc2c[nH]cn2)NC(=O)[C@H](CCCNC(=N)N)NC(=O)[C@H](Cc2ccc(O)cc2)NC(=O)[C@H](Cc2ccc(O)cc2)NC(=O)[C@H](Cc2c[nH]c3ccccc23)NC(=O)[C@H](Cc2ccccc2)NC(=O)[C@H](Cc2ccccc2)NC(=O)CNC(=O)[C@H](Cc2ccc(O)cc2)NC(=O)[C@H](Cc2c[nH]cn2)NC(=O)[C@H](CCCCN)NC(=O)[C@H](CO)NC(=O)[C@H](Cc2c[nH]cn2)NC(=O)[C@H](CCCNC(=N)N)NC(=O)[C@H](CC(N)=O)NC(=O)[C@H](CCCCN)NC1=O [GMAOe1C_V4] (H-GACLKNRHSKHYGFFWYYRHCY-NH2; disulfide 3-21; N-terminus assumed) |  | MIC (μM) SFM ([2]; SFM): 1.5 µM (≈ 4.25 µg/mL); MIC (μM) (SFM + 100 mM NaCl) [2]: 6 µM |
| PD87.1.1: SEQ ID NO: 560 with N-terminal alanine; Raphanus sativus wild-type defensin, expressed in Pichia pastoris (KLCQRPSGTWSGVCGNNNACKNQCIRLEKARHGSCNYVFPAHKCICYFPC; N-terminal alanine added; listed as Raphanus sativus) | 0.75 µM | MIC against F. graminearum [1]: 0.75 µM |
| PD83.1.1: SEQ ID NO: 542 with N-terminal alanine; Eucalyptus grandis wild-type defensin, expressed in Pichia pastoris (RMCESQSHKFHGLCMSDRTCVVVCKEEDFDDGKCRGFRHRCFCRKPC; N-terminal alanine added; listed as Eucalyptus grandis) | >12 µM |  |
| PD93.1.1: SEQ ID NO: 588 with N-terminal alanine; Fragaria vesca wild-type defensin, expressed in Pichia pastoris (KICEVPSKTFKGLCVKDRNCVVRCHSEGYGNGKCSHVRRQCMCLKICD; N-terminal alanine added; listed as Fragaria vesca) | >12 µM |  |
| PD85.1.1: SEQ ID NO: 551 with N-terminal alanine; Panax ginseng wild-type defensin, expressed in Pichia pastoris (KLCEKASLTWSGKCGNTQNCDKQCQNWESAKHGACHKRPTWKCFCYSDC; N-terminal alanine added; Panax ginseng) | >12 µM |  |
| PD96.1.1: SEQ ID NO: 603 with N-terminal alanine; Thlaspi arvense wild-type defensin, expressed in Pichia pastoris (RMCESKSHEFKGFCTKWRICRDVCITEGFTDGGCHGVLRHCVCKKPCLLSN; N-terminal alanine added; Thlaspi arvense) | 0.75 µM | MIC against F. graminearum [1]: 0.75 µM |
| PD89.1.2: SEQ ID NO: 569 with N-terminal alanine; Crambe maritima wild-type defensin, expressed in Pichia pastoris (KLCRKPSGTWSGLCANSDSCRKQCINLEKAKDGSCKYKFPAHKCFCYY; N-terminal alanine added; listed as Crambe maritima) | 12 µM |  |
| B1 | >12 µM |  |
| B2 | 1.5 µM |  |
| B3 | >12 µM |  |
